Experimental data reported in ChEMBL document CHEMBL4138210, “Synthesis and biological evaluation of some novel diastereoselective benzothiazole β-lactam conjugates” (Eur J Med Chem, 2018).
Values after ≈ are worked out from the molar mass of the structure shown.

Legend:
[1] = Hemolytic activity against human RBC at 250 uM after 1 hr relative to control; assay type: ADME, cell-based, Erythrocyte; settings: red blood cells (erythrocytes), read-out: Activity
Pseudomonas aeruginosa = assay: Antimicrobial activity against Pseudomonas aeruginosa PAO1 after 24 to 48 hrs by broth serial dilution method; assay type: functional
Staphylococcus aureus = assay: Antimicrobial activity against Staphylococcus aureus ATCC 25923 after 24 to 48 hrs by broth serial dilution method; assay type: functional
Plasmodium falciparum = assay: Antimalarial activity against Plasmodium falciparum K1; assay type: functional, organism-based
Escherichia coli = assay: Antimicrobial activity against Escherichia coli ATCC […] after 24 to 48 hrs by broth serial dilution method; assay type: functional
[2] = Cytotoxicity against human HepG2 cells assessed as cell viability after 72 hrs by MTT assay relative to control; assay type: cell-based; set-up: concentration or dose not given beside the values; settings: read-out: Activity
[3] = Plasmodium falciparum, K1, read-out: IC50

| MIC (Pseudomonas aeruginosa) [µg/mL] | MIC (Staphylococcus aureus) [µg/mL] | IC50 (Plasmodium falciparum; [3]) [µM] | MIC (Escherichia coli) [µg/mL] | IC50 (Plasmodium falciparum) | SMILES | hemolysis at 1 h, 250 µM [1] [%] | viability at 72 h [2] [%] |
| --- | --- | --- | --- | --- | --- | --- | --- |
| > 200 | 30 (≈ 60.2 µM) | 16.3 | > 200 |  | O=C1[C@H](Oc2ccc(-c3nc4ccccc4s3)cc2)[C@H](c2ccc3ccccc3c2)N1c1ccccc1 | 0.87 | 58 |
| > 200 | 205 (≈ 400 µM) | 20.4 | > 200 |  | COc1ccc(N2C(=O)[C@H](Oc3cccc(-c4nc5ccccc5s4)c3)[C@@H]2c2ccc(Cl)cc2)cc1 | 2.8 |  |
| > 200 | 199 (≈ 400 µM) | 31.1 | > 200 |  | Cc1ccc(N2C(=O)[C@H](Oc3ccc(-c4nc5ccccc5s4)cc3)[C@@H]2c2ccc(Cl)cc2)cc1 | 1.16 |  |
| > 200 | 26 (≈ 49.7 µM) | > 125 | > 200 |  | COc1ccc(N2C(=O)[C@H](Oc3cccc(-c4nc5ccccc5s4)c3)[C@@H]2c2ccc([N+](=O)[O-])cc2)cc1 | 1.56 | 99.5 |
| > 200 | 199 (≈ 400 µM) | 76.7 | > 200 |  | Cc1ccc(N2C(=O)[C@H](Oc3cccc(-c4nc5ccccc5s4)c3)[C@@H]2c2ccc(Cl)cc2)cc1 | 1.13 |  |
| > 200 | 205 (≈ 400 µM) | 40.7 | > 200 |  | COc1ccc(N2C(=O)[C@H](Oc3ccc(-c4nc5ccccc5s4)cc3)[C@@H]2c2ccc(Cl)cc2)cc1 | 0.93 |  |
| > 200 | 215 (≈ 399 µM) | 9.5 | > 200 |  | COc1ccc(N2C(=O)[C@H](Oc3ccc(-c4nc5ccccc5s4)cc3)[C@@H]2c2ccc(OC)c(OC)c2)cc1 | 0.82 | 70.1 |
| > 200 | 25 (≈ 49.3 µM) | 11.4 | > 200 |  | Cc1ccc(N2C(=O)[C@H](Oc3ccc(-c4nc5ccccc5s4)cc3)[C@@H]2c2ccc([N+](=O)[O-])cc2)cc1 | 1.25 | 80.7 |
| > 200 | 107 (≈ 200 µM) | > 125 | > 200 |  | CC(C)c1ccc([C@H]2[C@@H](Oc3ccc(-c4nc5ccccc5s4)cc3)C(=O)N2c2ccc(N(C)C)cc2)cc1 | 1.03 |  |
| > 200 | 26 (≈ 49.7 µM) | 10.4 | > 200 |  | COc1ccc(N2C(=O)[C@H](Oc3ccc(-c4nc5ccccc5s4)cc3)[C@@H]2c2ccc([N+](=O)[O-])cc2)cc1 | 1.11 | 71.4 |
| > 200 | 215 (≈ 400 µM) | 6 | > 200 |  | CCOc1ccc(N2C(=O)[C@H](Oc3cccc(-c4nc5ccccc5s4)c3)[C@@H]2c2ccc([N+](=O)[O-])cc2)cc1 | 1.02 | 101 |
| > 200 | 29 (≈ 49.7 µM) |  | > 200 | Nd(Insoluble) | COc1cc(N2C(=O)[C@H](Oc3ccc(-c4nc5ccccc5s4)cc3)[C@@H]2c2ccc([N+](=O)[O-])cc2)cc(OC)c1OC | 1.09 | 62.4 |
| > 200 | 204 (≈ 401 µM) | 60.5 | > 200 |  | O=C1[C@H](Oc2ccc(-c3nc4ccccc4s3)cc2)[C@H](/C=C/c2ccccc2)N1c1ccc(Cl)cc1 | 2.18 |  |
| > 200 | 231 (≈ 399 µM) |  | > 200 | Nd(Insoluble) | COc1ccc(N2C(=O)[C@H](Oc3ccc(-c4nc5ccccc5s4)cc3)[C@@H]2c2c3ccccc3cc3ccccc23)cc1 | 0.89 |  |
| > 200 | 26 (≈ 49.7 µM) | 17.7 | > 200 |  | COc1ccc(N2C(=O)[C@H](Oc3ccc(-c4nc5ccccc5s4)cc3)[C@@H]2c2cccc([N+](=O)[O-])c2)cc1 | 1.02 | 62.8 |
| > 200 | 215 (≈ 400 µM) | 11.8 | > 200 |  | CCOc1ccc(N2C(=O)[C@H](Oc3ccc(-c4nc5ccccc5s4)cc3)[C@@H]2c2ccc([N+](=O)[O-])cc2)cc1 | 2.29 | 74.8 |
